The record followed here is US20240423969A1, “SYNERGISTIC DRUG COMBINATIONS TO TREAT CANCER” (Mayo Foundation for Medical Education and Research, priority 2023, published 2024).

The assay deals with HCC cell lines (HLE, HLF, and PLC/PRF5). The experiment in a line: Cell proliferation assay, three HCC cell lines. The class given is cell-based. To be noted: Homo sapiens, PLC-PRF-5, single agent, range over HLE, 96 hours, read-out: IC50 (concentration that inhibits proliferation of 50% cells). Here is the method:
HCC cell lines (3×10^5 cells) were suspended in a 10 mL culture medium and seeded onto 96-well black plates at 100 μL per well (Corning Incorporated, Corning, NY, USA). The next day, SSI-4, cabozantinib, and/or lenvatinib were added in concentrations ranging from 120 μM to 0.1 nM and incubated with cells for 96 hours. After incubation times, the media was discarded, and cells were washed with 100 μL PBS, dried, and placed at −80° C. for at least 30 minutes. Next, a CyQUANT® Cell Proliferation Assay (Thermo Fisher, Waltham, MA) was used for quantifying cells and for assessing cell proliferation and cytotoxicity following manufacturer protocol. For 3D cell culture, the cell viability was analyzed using CellTiter-Glo® 3D Cell Viability Assay (Promega, Madison, WI), and relative luminescence units (RLU) were measured. Based, on the fluorescence or luminescence values, the percentage of cell proliferation inhibition and half-maximal inhibitory concentration (IC50) was determined using the GraphPad Prism (Dotmatics, San Diego, CA). The resulting combination index (CI) data based on the median effect principle proposed by Chou and Talalay was generated using CalcuSyn Software Version 2.0 (Biosoft). At least 3 independent experiments were performed.
Three HCC cell lines (HLE, HLF, and PLC/PRF5) were tested and the concentration that inhibits proliferation of 50% cells (IC50) was determined. […]

pIC50: −log10 of the molar value.

As for `CNC(=O)c1ccnc(NC(=O)N2CCC(Oc3ccccc3Cl)CC2)c1` [SSI-4, 2-{[4-(2-Chlorophenoxy)piperidine-1-carbonyl]amino}-N-methylpyridine-4-carboxamide], the pIC50 is 7.72 to 9.00.

`COc1cc2nccc(Oc3ccc(NC(=O)C4(C(=O)Nc5ccc(F)cc5)CC4)cc3)c2cc1OC` [cabozantinib]: the pIC50 was 4.14 to 4.72.

With `COc1cc2nccc(Oc3ccc(NC(=O)NC4CC4)c(Cl)c3)c2cc1C(N)=O` [lenvatinib], the pIC50 was 4.62 to 4.96.
